Reference: patent US20120258937A1, “Targeting Estrogen Receptors in the Treatment of Lymphangioleiomyomatosis” (Fox Chase Cancer Center, priority 2011, published 2012)

Columns and labels:
ELT3 cells = experiment: ELT3 xenograft tumor growth, lung metastasis and survival in SCID mice; assay type: in vivo; conditions: for effect on estradiol-promoted lung metastases: ELT3 xenograft model of LAM; for mean tumor area: post-inoculation week eight
Method: Animal studies. All animal work was performed in accordance with protocols approved by the Institutional Animal Care and Use Committee at the Brigham and Women's Hospital. Female ovariectomized and male CB17-SCID mice, six to eight weeks of age, were purchased from Taconic (Hudson, N.Y.). One week prior to ELT3 cell injection, 17-beta estradiol or placebo pellets (2.5 mg, 90-day release, Innovative Research America, Sarasota, Fla.) were implanted. For xenograft tumor establishment, 2×10^6 ELT3 cells were bilaterally injected into the rear flanks of the mice. Lung metastases were scored from five-micron H & E stained sections of each lobe by observers blinded to the experimental conditions. […]
Statistical analyses. Statistical analyses were performed using Student's t-test when comparing two groups. Results are presented as means+SD (Standard Deviation) of experiments performed in triplicate. Differences were considered significant at p<0.05.

MMP2 [1] = experiment: MMP2 activity in ELT3 conditioned media by gelatin zymography; assay type: cell-based, rat; conditions: ELT3 cells
Method: (§1) Cell culture and reagents. ELT-3 cells (Eker rat uterine leiomyoma-derived smooth muscle cells) were cultured in IIA complete medium supplemented with 15% fetal bovine serum (FBS). Prior to the in vitro experiments, cells were maintained in media supplemented with 10% charcoal-stripped FBS for three days, and then serum-starved for 24 hours in serum-free and phenol red-free medium. 17 beta-estradiol (E2, 10 nM, Sigma, St. Louis, Mo.), PD98059 (50 μM, Cell Signaling Technology, Danvers, Mass.), or ICI 182780 (1 μM, Biomol) were added to the cells as indicated.
(§2) Immunohistochemistry. Sections were deparaffinized, incubated overnight with primary antibodies at 4° C. in a humidified chamber and then rinsed and incubated with biotinylated secondary antibodies for 30 minutes at room temperature. Slides were developed using the Broad Spectrum AEC Histostain®-Plus or Histostain®-Plus kit (Invitrogen), and they were counterstained with Gill's Hematoxylin. TUNEL assay reagent was from Roche. Gelatin zymography. Conditioned media from cultured cells were collected, filtered through […] Nalgene filter, and subjected for gel electrophoresis on 10% SDS-PAGE containing 0.1% gelatin (Invitrogen). MMP2 activity was detected according to the manufacture's protocol. Real-time RT-PCR. Total RNA from cultured cells and xenograft tumors was isolated using RNeasy® Mini Kit (Qiagen, Valencia, Calif.). Gene expression was quantified using One-Step qRT-PCR Kits (Invitrogen) in the Applied Biosystems Real-Time PCR System and normalized to beta-actin control amplification.

ELT3 xenograft tumors = experiment: Analysis of ELT3 xenograft tumors (H&E, immunohistochemistry, TUNEL, immunoblot, real-time RT-PCR); assay type: in vivo, mice; conditions: for MMP2 protein level vs placebo-treated: immunoblotting
Method: Animal studies. All animal work was performed in accordance with protocols approved by the Institutional Animal Care and Use Committee at the Brigham and Women's Hospital. Female ovariectomized and male CB17-SCID mice, six to eight weeks of age, were purchased from Taconic (Hudson, N.Y.). One week prior to ELT3 cell injection, 17-beta estradiol or placebo pellets (2.5 mg, 90-day release, Innovative Research America, Sarasota, Fla.) were implanted. For xenograft tumor establishment, 2×10^6 ELT3 cells were bilaterally injected into the rear flanks of the mice. Lung metastases were scored from five-micron H & E stained sections of each lobe by observers blinded to the experimental conditions. Fulvestrant (1 mg/day, intramuscular injection) or Doxycycline (0.7 mg/day, 60-day release, Innovative Research America) treatments were initiated one day post-cell inoculation.
(§3) Immunoblotting and antibodies. Cells were rinsed once in ice-cold PBS and lysed in m-PER buffer (50 mM HEPES, pH 7.5, 50 mM NaCl, 5 mM EDTA, 50 mM NaF, 10 mM Na4P2O7, and 1% Triton, Pierce). Lysates were resolved by SDS-PAGE electrophoresis and transferred onto Immobilon P membranes (Millipore, Bedford, Mass.). The following antibodies were used for Western blot analysis: anti-MMP2 (Chemicon), anti-phospho-p42/44 MAPK (T202/Y204), anti-p42/44MAPK, anti-Collagen Type IV (Abnova), anti-Ki67 (BioGenex, San Ramon, Calif.), anti-beta-actin (Sigma), and anti-ERα (Santa Cruz, Calif.). Western blots were developed using horseradish peroxidase-conjugated secondary antibodies and ECL chemiluminescence (Amersham Biosciences, Piscataway, N.J.).
as §2

MMP2 [2] = experiment: MMP2 accumulation in cultured ELT3 cells by immunoblotting; assay type: cell-based, rat
Method: as §1, §3

[3] = estradiol plus drug, immunoblot
[4] = ELT3 xenograft, given on this schedule (one day prior to cell inoculation)
[5] = real-time RT-PCR, female mice, size-matched tumors

C[C@]12CC[C@@H]3c4ccc(O)cc4C[C@@H](CCCCCCCCC[S+]([O-])CCCC(F)(F)C(F)(F)F)[C@H]3[C@@H]1CC[C@@H]2O (stereo partly drawn) [Fulvestrant]
effect on estradiol-promoted lung metastases (ELT3 cells; drug plus estradiol): completely blocked | effect on survival of estradiol-treated mice bearing xenograft tumors (ELT3 cells; drug plus estradiol, Kaplan-Meier): significantly increased | mean tumor area (ELT3 cells; drug plus estradiol): 259±83 mm^2 | effect on estradiol-stimulated MMP2 activity (MMP2 [1]; 4 hours pretreatment, then estradiol stimulation): almost completely blocked | cell death (TUNEL staining) in xenograft tumors (ELT3 xenograft tumors; drug in estradiol-treated mice): did not affect | cell proliferation (Ki-67 immunoreactivity) in xenograft tumors (ELT3 xenograft tumors; drug in estradiol-treated mice): did not affect | ECM organization in xenograft tumors (ELT3 xenograft tumors; drug plus estradiol-treated animals): well-maintained ECM network | ECM organization in xenograft tumors (ELT3 xenograft tumors; drug plus placebo-treated animals): dense bundles of collagen fibers | ERα in tumors (ELT3 xenograft tumors; [3]): lower levels | phospho-p42/44 MAPK in tumors (ELT3 xenograft tumors; [3]): lower levels

C[C@H]1c2cccc(O)c2C(=O)C2=C(O)[C@]3(O)C(=O)C(C(N)=O)=C(O)[C@@H](N(C)C)[C@@H]3[C@@H](O)[C@@H]21 [Doxycycline]
average number of lung metastases (ELT3 cells; drug plus estradiol): 9 metastases/mouse | range of number of lung metastases (ELT3 cells; drug plus estradiol): 6-18 metastases/mouse | effect on estradiol-promoted lung metastases (ELT3 cells; drug plus estradiol): does not inhibit | mice with lung metastases (ELT3 cells; drug plus estradiol, four of five mice): 80% | mean tumor area (ELT3 cells; drug plus estradiol): 333±142 mm^2 | mean tumor area (ELT3 cells; drug plus placebo): 193±80 mm^2

COc1cccc(-c2cc(=O)c3ccccc3o2)c1N [PD98059]
effect on estradiol's enhancement of MMP2 accumulation (MMP2 [2]; 30 minutes preincubation, after two hours of estradiol treatment): strongly blocked

CO[C@H]1C[C@@H]2CC[C@@H](C)[C@@](O)(O2)C(=O)C(=O)N2CCCC[C@H]2C(=O)O[C@H]([C@H](C)C[C@@H]2CC[C@@H](OCCO)[C@H](OC)C2)CC(=O)[C@H](C)/C=C(\C)[C@@H](O)[C@@H](OC)C(=O)[C@H](C)C[C@H](C)/C=C/C=C/C=C/1C [RAD001]
lung metastasis (ELT3 cells; [4]): completely blocked | subcutaneous tumor development (ELT3 cells; [4]): completely blocked

C[C@]12CC[C@@H]3c4ccc(O)cc4CC[C@H]3[C@@H]1CC[C@@H]2O [estradiol, 17 beta-estradiol]
average number of lung metastases (ELT3 cells; E2 alone): 10 metastases/mouse | range of number of lung metastases (ELT3 cells; E2 alone): 4-37 metastases/mouse | mice with pulmonary metastases (ELT3 cells; E2 alone, five of nine mice): 56% | increase in pulmonary metastasis of ELT3 cells (ELT3 cells; E2 alone, mice bearing xenograft tumors): three- to five-fold | overall survival vs placebo-treated mice (ELT3 cells; estradiol alone, mice bearing xenograft tumors): reduced overall survival | mean tumor area (ELT3 cells; estrogen alone): 251±65 mm^2 | increase of MMP2 activity (MMP2 [1]; estradiol stimulation for 24 hours): eight-fold | duration of estradiol-stimulated MMP2 activity (MMP2 [1]; up to 120 minutes stimulation): sustained throughout the 120 minutes stimulation | increase of active MMP2 level (MMP2 [1]; within five minutes of estradiol stimulation): three-fold | increase of MMP2 accumulation (MMP2 [2]; within two to four hours of estradiol treatment): five to seven-fold | type IV collagen in xenograft tumors (ELT3 xenograft tumors; estradiol alone vs placebo, female and male mice): marked reduction | ECM organization in xenograft tumors (ELT3 xenograft tumors; estradiol alone vs placebo, female and male mice, H&E): disrupted ECM network | MMP2 protein level vs placebo-treated (ELT3 xenograft tumors; female mice): 1.8 fold | MMP2 protein level vs placebo-treated (ELT3 xenograft tumors; male mice): 2.5 fold | MMP2 transcript level vs placebo-treated (ELT3 xenograft tumors; [5]): 5 fold | MMP9 transcript level vs placebo-treated (ELT3 xenograft tumors; [5]): 28 fold | progesterone receptor (PgR) level vs placebo-treated (ELT3 xenograft tumors; real-time RT-PCR, xenograft tumors): 4 fold
